33 compounds from US11858941B2, “Heterocyclic and heteroaryl compounds for treating Huntington's disease” (PTC THERAPEUTICS, INC., priority 2018, dated 2024) can be followed below.

SMILES strings stand for the structures.

For the test, the system named is Endogenous Huntingtin Protein. As to the kind of experiment: Endogenous Huntingtin Protein Assay (Meso Scale Discovery ELISA-based electrochemiluminescence). To be noted: MSD plates coated with MW1 (expanded polyglutamine) or MAB2166 capture antibody; lysates. It counts as cell-based. The procedure, abridged:
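MSD electrochemiluminescence sandwich ELISA: MW1 (expanded polyQ) or MAB2166 capture antibody at 1 μg/mL, samples incubated overnight at 4° C. Detection with rabbit monoclonal #5656S then SULFO-TAG anti-rabbit antibody, each 0.25 μg/mL for 1 h at room temperature.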
Background: ELISA stands for enzyme-linked immunosorbent assay.
A word on the IC50: it is the midpoint of a concentration-inhibition curve. Compound `Oc1cc(-c2cn[nH]c2)ccc1-c1cc2cnn(C3CCNCC3)c2nn1` [Cpd 21, 2-[1-(piperidin-4-yl)-1H-pyrazolo[3,4-c]pyridazin-5-yl]-5-(1H-pyrazol-4-yl)phenol] had an IC50 of 1000 to 3000 nM.
For `Oc1cc(-c2cn[nH]c2)ccc1-c1cc2[nH]cc(C3CCNCC3)c2nn1` [Cpd 12, 2-[7-(piperidin-4-yl)-5H-pyrrolo[3,2-c]pyridazin-3-yl]-5-(1H-pyrazol-4-yl)phenol] the value was 100 to 500 nM; for `CC1(C)CC(n2nnc3cc(-c4ncc(-c5cn[nH]c5)cc4O)nnc32)CC(C)(C)N1` [Cpd 140, 5-(1H-pyrazol-4-yl)-2-[3-(2,2,6,6-tetramethylpiperidin-4-yl)-3H-[1,2,3]triazolo[4,5-c]pyridazin-6-yl]pyridin-3-ol], at most 100 nM.
`Cn1ccc(-c2ccc(-c3cc4nnn(C5CC(C)(C)NC(C)(C)C5)c4nn3)c(O)c2)n1` [Cpd 51, 5-(1-methyl-1H-pyrazol-3-yl)-2-[3-(2,2,6,6-tetramethylpiperidin-4-yl)-3H-[1,2,3]triazolo[4,5-c]pyridazin-6-yl]phenol] gave a concentration for half-maximal inhibition (IC50) of 100 to 500 nM.
Regarding `CCn1ncc(-c2ccc(-c3cc4nnn(C5CC(C)(C)NC(C)(C)C5)c4nn3)c(O)c2)c1F` [Cpd 122, 5-(1-ethyl-5-fluoro-1H-pyrazol-4-yl)-2-[3-(2,2,6,6-tetramethylpiperidin-4-yl)-3H-[1,2,3]triazolo[4,5-c]pyridazin-6-yl]phenol], the IC50 fell in the range of 1000 to 3000 nM.
`CC1(C)CC(n2ncc3cc(-c4ccc(-n5nccn5)cc4O)nnc32)CC(C)(C)N1` [Cpd 174, 2-[1-(2,2,6,6-tetramethylpiperidin-4-yl)-1H-pyrazolo[3,4-c]pyridazin-5-yl]-5-(2H-1,2,3-triazol-2-yl)phenol] had an IC50 of at most 100 nM.
`CC1(C)CC(n2nnc3cc(-c4ccc(-c5cc(F)c6nn[nH]c6c5)cc4O)nnc32)CC(C)(C)N1` [Cpd 135, 5-(4-fluoro-1H-benzotriazol-6-yl)-2-[3-(2,2,6,6-tetramethylpiperidin-4-yl)-3H-[1,2,3]triazolo[4,5-c]pyridazin-6-yl]phenol] yielded an IC50 of at most 100 nM.
`CC1(C)CC(n2nnc3cc(-c4ccc(-n5cnc(F)c5)cc4O)nnc32)CC(C)(C)N1` [Cpd 143, 5-(4-fluoro-1H-imidazol-1-yl)-2-[3-(2,2,6,6-tetramethylpiperidin-4-yl)-3H-[1,2,3]triazolo[4,5-c]pyridazin-6-yl]phenol] showed an IC50 of at most 100 nM.
`Cn1ncc(-c2ccc(-c3cc4nnn(C5CC(C)(C)NC(C)(C)C5)c4nn3)c(O)c2)n1` [Cpd 151, 5-(2-methyl-2H-1,2,3-triazol-4-yl)-2-[3-(2,2,6,6-tetramethylpiperidin-4-yl)-3H-[1,2,3]triazolo[4,5-c]pyridazin-6-yl]phenol] showed a half-inhibitory concentration (IC50) of at most 100 nM.
For `Oc1cc(-c2cn[nH]c2)ccc1-c1cc2scc(C3=CC4CCC(C3)N4)c2nn1` (stereo not drawn) [Cpd 18, 2-[7-(8-azabicyclo[3.2.1]oct-2-en-3-yl)thieno[3,2-c]pyridazin-3-yl]-5-(1H-pyrazol-4-yl)phenol] the value was at most 100 nM; for `CC1(C)CC(n2nnc3cc(-c4ccc(-c5cn[nH]c5)cc4O)nnc32)CCN1` (stereo not drawn) [Cpd 56, 2-[3-(2,2-dimethylpiperidin-4-yl)-3H-[1,2,3]triazolo[4,5-c]pyridazin-6-yl]-5-(1H-pyrazol-4-yl)phenol], 100 to 500 nM; for `Cc1cnc(-c2ccc(-c3cc4nnn(C5CC(C)(C)NC(C)(C)C5)c4nn3)c(O)c2)s1` [Cpd 133, 5-(5-methyl-1,3-thiazol-2-yl)-2-[3-(2,2,6,6-tetramethylpiperidin-4-yl)-3H-[1,2,3]triazolo[4,5-c]pyridazin-6-yl]phenol], 100 to 500 nM.
On to `CC1(C)CC(n2nnc3cc(-c4ccc(-c5ccc(O)cn5)cc4O)nnc32)CC(C)(C)N1` [Cpd 67, 6-{3-hydroxy-4-[3-(2,2,6,6-tetramethylpiperidin-4-yl)-3H-[1,2,3]triazolo[4,5-c]pyridazin-6-yl]phenyl}pyridin-3-ol], for which the half-maximal inhibitory concentration (IC50) is at most 100 nM.
`COc1cc(-c2ccc(-c3cc4nnn(C5CC(C)(C)NC(C)(C)C5)c4nn3)c(O)c2)ncn1` [Cpd 113, 5-(6-methoxypyrimidin-4-yl)-2-[3-(2,2,6,6-tetramethylpiperidin-4-yl)-3H-[1,2,3]triazolo[4,5-c]pyridazin-6-yl]phenol] displayed a half-inhibitory concentration (IC50) of at most 100 nM.
Consider `Cc1n[nH]cc1-c1ccc(-c2cc3nnn(C4CC(C)(C)NC(C)(C)C4)c3nn2)c(O)c1` [Cpd 108, 5-(3-methyl-1H-pyrazol-4-yl)-2-[3-(2,2,6,6-tetramethylpiperidin-4-yl)-3H-[1,2,3]triazolo[4,5-c]pyridazin-6-yl]phenol], for which the half-inhibitory concentration (IC50) is at most 100 nM.
`CC1(C)CC(n2nnc3cc(-c4ccc(-n5ccnn5)cc4O)nnc32)CC(C)(C)N1` [Cpd 72, 2-[3-(2,2,6,6-tetramethylpiperidin-4-yl)-3H-[1,2,3]triazolo[4,5-c]pyridazin-6-yl]-5-(1H-1,2,3-triazol-1-yl)phenol] had an IC50 of 100 to 500 nM.
`Cc1ccnn1-c1ccc(-c2cc3nnn(C4CC(C)(C)NC(C)(C)C4)c3nn2)c(O)c1` [Cpd 155, 5-(5-methyl-1H-pyrazol-1-yl)-2-[3-(2,2,6,6-tetramethylpiperidin-4-yl)-3H-[1,2,3]triazolo[4,5-c]pyridazin-6-yl]phenol] yielded a half-inhibitory concentration (IC50) of 3000 to 9000 nM.
`CC1(C)CC(n2nnc3cc(-c4ccc(-c5ncns5)cc4O)nnc32)CC(C)(C)N1` [Cpd 134, 2-[3-(2,2,6,6-tetramethylpiperidin-4-yl)-3H-[1,2,3]triazolo[4,5-c]pyridazin-6-yl]-5-(1,2,4-thiadiazol-5-yl)phenol] gave an IC50 of at most 100 nM.
Take `CC1(C)CC(n2nnc3cc(-c4ccc(-c5c[nH]nc5Cl)cc4O)nnc32)CC(C)(C)N1` [Cpd 129, 5-(3-chloro-1H-pyrazol-4-yl)-2-[3-(2,2,6,6-tetramethylpiperidin-4-yl)-3H-[1,2,3]triazolo[4,5-c]pyridazin-6-yl]phenol]: the IC50 is at most 100 nM.
For `CC1(C)CC(n2nnc3cc(-c4ccc(-c5cncs5)cc4O)nnc32)CC(C)(C)N1` [Cpd 107, 2-[3-(2,2,6,6-tetramethylpiperidin-4-yl)-3H-[1,2,3]triazolo[4,5-c]pyridazin-6-yl]-5-(1,3-thiazol-5-yl)phenol] the value was at most 100 nM; for `Cn1cc(-c2ccc(-c3cc4cnn(C5CC(C)(C)NC(C)(C)C5)c4nn3)c(O)c2)c(F)n1` [Cpd 148], at most 100 nM; for `CC1(C)CC(n2nnc3cc(-c4ccc(-c5ncc[nH]5)cc4O)nnc32)CC(C)(C)N1` [Cpd 91, 5-(1H-imidazol-2-yl)-2-[3-(2,2,6,6-tetramethylpiperidin-4-yl)-3H-[1,2,3]triazolo[4,5-c]pyridazin-6-yl]phenol], 1000 to 3000 nM.
Compound `CC1(C)CC(n2nnc3cc(-c4ccc(-c5cnoc5)cc4O)nnc32)CC(C)(C)N1` [Cpd 120, 5-(1,2-oxazol-4-yl)-2-[3-(2,2,6,6-tetramethylpiperidin-4-yl)-3H-[1,2,3]triazolo[4,5-c]pyridazin-6-yl]phenol] gave an IC50 of 100 to 500 nM.
Take `CC1(C)C[C@@H](n2nnc3cc(-c4ccc(-c5cn[nH]c5)cc4O)nnc32)[C@H](F)C(C)(C)N1` [Cpd 168, 2-{3-[(3S,4R)-3-fluoro-2,2,6,6-tetramethylpiperidin-4-yl]-3H-[1,2,3]triazolo[4,5-c]pyridazin-6-yl}-5-(1H-pyrazol-4-yl)phenol]: the IC50 is at most 100 nM.
For `CC1(C)CC(n2nnc3cc(-c4ccc(-c5ccc(O)nn5)cc4O)nnc32)CC(C)(C)N1` [Cpd 79, 6-{3-hydroxy-4-[3-(2,2,6,6-tetramethylpiperidin-4-yl)-3H-[1,2,3]triazolo[4,5-c]pyridazin-6-yl]phenyl}pyridazin-3-ol] the value was 500 to 1000 nM.
On to `CCOc1cc(-c2ccc(-c3cc4nnn(C5CC(C)(C)NC(C)(C)C5)c4nn3)c(O)c2)ccn1` [Cpd 123, 5-(2-ethoxypyridin-4-yl)-2-[3-(2,2,6,6-tetramethylpiperidin-4-yl)-3H-[1,2,3]triazolo[4,5-c]pyridazin-6-yl]phenol], for which the 50% inhibitory concentration (IC50) is 3000 to 9000 nM.
For the compound `COc1n[nH]cc1-c1ccc(-c2cc3nnn(C4CC(C)(C)NC(C)(C)C4)c3nn2)c(O)c1` [Cpd 131, 5-(3-methoxy-1H-pyrazol-4-yl)-2-[3-(2,2,6,6-tetramethylpiperidin-4-yl)-3H-[1,2,3]triazolo[4,5-c]pyridazin-6-yl]phenol], the IC50 was at most 100 nM.
The compound `CC1(C)CC(n2nnc3cc(-c4ccc(-c5ccc(O)cc5)cc4O)nnc32)CC(C)(C)N1` [Cpd 38, 4-[3-(2,2,6,6-tetramethylpiperidin-4-yl)-3H-[1,2,3]triazolo[4,5-c]pyridazin-6-yl]biphenyl-3,4′-diol] showed an IC50 of at most 100 nM.
`Cc1cnn(-c2ccc(-c3cc4nnn(C5CC(C)(C)NC(C)(C)C5)c4nn3)c(O)c2)c1` [Cpd 156, 5-(4-methyl-1H-pyrazol-1-yl)-2-(3-(2,2,6,6-tetramethylpiperidin-4-yl)-3H-[1,2,3]triazolo[4,5-c]pyridazin-6-yl)phenol]: the 50% inhibitory concentration (IC50) lay within 100 to 500 nM.
`COc1ncnc(-c2ccc(-c3cc4nnn(C5CC(C)(C)NC(C)(C)C5)c4nn3)c(O)c2)n1` [Cpd 159, 5-(4-methoxy-1,3,5-triazin-2-yl)-2-(3-(2,2,6,6-tetramethylpiperidin-4-yl)-3H-[1,2,3]triazolo[4,5-c]pyridazin-6-yl)phenol]: the half-maximal inhibitory concentration (IC50) was at most 100 nM.
Regarding `CC1(C)CC(n2nnc3cc(-c4cc(F)c(-c5cn[nH]c5)cc4O)nnc32)CC(C)(C)N1` [Cpd 35, 4-fluoro-5-(1H-pyrazol-4-yl)-2-[3-(2,2,6,6-tetramethylpiperidin-4-yl)-3H-[1,2,3]triazolo[4,5-c]pyridazin-6-yl]phenol], the IC50 was at most 100 nM.
`CC1(C)CC(n2ccc3cc(-c4ccc(-c5cn[nH]c5)cc4O)nnc32)CC(C)(C)N1` [Cpd 26, 5-(1H-pyrazol-4-yl)-2-[7-(2,2,6,6-tetramethylpiperidin-4-yl)-7H-pyrrolo[2,3-c]pyridazin-3-yl]phenol]: the IC50 is at most 100 nM.
As for `Fc1c(-c2cn[nH]c2)ccc(-c2cc3c(nn2)N(C2CC4CCC(C2)N4)CC3)c1F` (stereo not drawn) [Cpd 36, 7-[(3-exo)-8-azabicyclo[3.2.1]oct-3-yl]-3-[2,3-difluoro-4-(1H-pyrazol-4-yl)phenyl]-6,7-dihydro-5H-pyrrolo[2,3-c]pyridazine], the IC50 fell in the range of 100 to 500 nM.
